The subject of one series is 60 cancer cell lines. Put plainly: NCI-60 human tumor cell line screen. The class given is cell-based. Conditions: fixed concentration of 10 μM (FIG. 8).
The target in series [1] is T1, HSPA1A (Homo sapiens, UniProt P0DMV8). Put plainly: FP peptide binding assay, HSPA1A SBD. On the set-up: His6 (N, cleaved yes); made in house; host or cells: E. coli (Codon plus). Conditions: 1 μM HSP70 SBD, 10 nM fluorescent peptide, read-out: A1A IC50.
Target sequence in this assay (P0DMV8 394-509 limits assumed): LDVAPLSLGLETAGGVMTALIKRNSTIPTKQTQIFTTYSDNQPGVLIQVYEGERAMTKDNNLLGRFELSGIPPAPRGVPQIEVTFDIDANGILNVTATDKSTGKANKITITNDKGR
Another series addresses T2, HSPA9 (Homo sapiens, UniProt P38646).
T2 construct: His6 (N, cleaved yes); made in house; host or cells: E. coli (Codon plus)
T2 sequence (P38646 442-679 limits assumed): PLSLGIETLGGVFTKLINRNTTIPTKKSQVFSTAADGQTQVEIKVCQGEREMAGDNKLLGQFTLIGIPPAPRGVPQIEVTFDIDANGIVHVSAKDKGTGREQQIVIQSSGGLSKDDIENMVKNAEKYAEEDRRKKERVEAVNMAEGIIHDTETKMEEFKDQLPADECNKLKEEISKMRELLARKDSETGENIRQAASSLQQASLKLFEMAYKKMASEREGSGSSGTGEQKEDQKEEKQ
The series is described as follows: FP peptide binding assay, HSPA9 SBD. Conditions: 1 μM HSP70 SBD, 10 nM fluorescent peptide, read-out: A9 IC50.

In another series the test system is cancer cell lines. The series is described as follows: ZIP synergy with CB5083, growth inhibition. The class given is cell-based. As to conditions: combination of CB5083 and 8 (FIG. 9A).
The target in another series is T3, HSA (Homo sapiens, UniProt P02768).
T3 construct: Each sample contained 20 μM HSA in PBS at pH 7.4; from tissue; host or cells: human serum
Put plainly: Serum binding assay (dansylamide and BD140 probes). The class given is in vitro ADME. Conditions: 50 μM compound, 20 μM HSA.

Series [2] has as its target T4, HSPA8 (Homo sapiens, UniProt P11142). The series is described as follows: FP peptide binding assay, HSPA8 SBD. On the set-up: His6 (N, cleaved yes); made in house; host or cells: E. coli (Codon plus). As to conditions: 1 μM HSP70 SBD, 10 nM fluorescent peptide, read-out: A8 IC50.
Target sequence in this assay (P11142 394-509 limits assumed): as the sequence (P0DMV8 394-509 limits assumed) above, with A4T, L10I, A19V, S25T, I34T, R65K, S69T, T96S, T98V, A105E counted along it
For the next series, the target named is T5, HSPA6 (Homo sapiens, UniProt P17066).
T5 construct: His6 (N, cleaved yes); made in house; host or cells: E. coli (Codon plus)
Put plainly: FP peptide binding assay, HSPA6 SBD. As to conditions: 1 μM HSP70 SBD, 10 nM fluorescent peptide, read-out: A6 IC50.

The target in the next series is T6, HSPA2 (Homo sapiens, UniProt P54652).
T6 construct: His6 (N, cleaved yes); made in house; host or cells: E. coli (Codon plus)
The series is described as follows: FP peptide binding assay, HSPA2 SBD. As to conditions: 1 μM HSP70 SBD, 10 nM fluorescent peptide, read-out: A2 IC50.

The next series deals with U251 glioblastoma cells. The series is described as follows: Cellular synergy, U251 growth rate (incucyte confluence). Conditions: 10 μM of 8 (FIG. 12). The class given is cell-based.
A further series addresses HSPA5 (Homo sapiens, UniProt P11021). The series is described as follows: FP peptide binding assay, HSPA5 (HSPA5-NRLLLTG interaction). Details: His6 (N, cleaved yes); made in house; host or cells: E. coli (Codon plus). Conditions: FP, 1 μM HSP70 SBD, 10 nM fluorescent peptide; read-out: A5 IC50.
Series [3] can be described thus: Solubility (comparison in words). The class given is physicochemical.
Series [4] addresses T7, HspA5 substrate binding domain (Homo sapiens, UniProt P11021).
T7 construct: HspA5SBD); His6-Smt3 (N, cleaved yes); made in house; host or cells: E. coli BL21-Codon+
The series is described as follows: 15N-HSQC NMR of HspA5 substrate binding domain. Conditions: FIG. 11.

Series [5] concerns canonical human HSP70 isoforms. Put plainly: FP binding of fluorescent peptides to HSP70 substrate binding domains. Conditions: FIG. 4A.
The target in series [6] is T1, HSPA1A. Conditions: read-out: NRLLLTG affinity for HSPA1A; reported in the literature; cited from earlier work.
Target sequence in this assay (P0DMV8 whole entry): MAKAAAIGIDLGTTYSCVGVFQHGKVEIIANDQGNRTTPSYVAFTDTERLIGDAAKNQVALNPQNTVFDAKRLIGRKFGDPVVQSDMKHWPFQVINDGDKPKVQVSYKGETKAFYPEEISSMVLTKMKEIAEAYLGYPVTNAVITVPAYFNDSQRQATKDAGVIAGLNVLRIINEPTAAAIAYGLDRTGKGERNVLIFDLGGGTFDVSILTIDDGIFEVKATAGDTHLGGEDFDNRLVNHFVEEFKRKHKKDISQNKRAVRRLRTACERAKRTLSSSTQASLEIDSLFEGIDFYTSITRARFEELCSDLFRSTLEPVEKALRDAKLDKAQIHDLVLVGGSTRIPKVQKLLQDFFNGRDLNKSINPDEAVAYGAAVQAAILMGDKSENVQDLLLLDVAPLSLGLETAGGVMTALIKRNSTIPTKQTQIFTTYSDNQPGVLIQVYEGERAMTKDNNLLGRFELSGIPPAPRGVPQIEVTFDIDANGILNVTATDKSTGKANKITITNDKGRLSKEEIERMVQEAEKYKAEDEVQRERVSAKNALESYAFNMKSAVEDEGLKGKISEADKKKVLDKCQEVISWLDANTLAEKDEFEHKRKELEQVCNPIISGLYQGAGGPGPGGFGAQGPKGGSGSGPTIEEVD
For series [7], the target named is T4, HSPA8. As to conditions: read-out: NRLLLTG affinity for HSPA8; reported in the literature; cited from earlier work.
Target sequence in this assay (P11142 whole entry): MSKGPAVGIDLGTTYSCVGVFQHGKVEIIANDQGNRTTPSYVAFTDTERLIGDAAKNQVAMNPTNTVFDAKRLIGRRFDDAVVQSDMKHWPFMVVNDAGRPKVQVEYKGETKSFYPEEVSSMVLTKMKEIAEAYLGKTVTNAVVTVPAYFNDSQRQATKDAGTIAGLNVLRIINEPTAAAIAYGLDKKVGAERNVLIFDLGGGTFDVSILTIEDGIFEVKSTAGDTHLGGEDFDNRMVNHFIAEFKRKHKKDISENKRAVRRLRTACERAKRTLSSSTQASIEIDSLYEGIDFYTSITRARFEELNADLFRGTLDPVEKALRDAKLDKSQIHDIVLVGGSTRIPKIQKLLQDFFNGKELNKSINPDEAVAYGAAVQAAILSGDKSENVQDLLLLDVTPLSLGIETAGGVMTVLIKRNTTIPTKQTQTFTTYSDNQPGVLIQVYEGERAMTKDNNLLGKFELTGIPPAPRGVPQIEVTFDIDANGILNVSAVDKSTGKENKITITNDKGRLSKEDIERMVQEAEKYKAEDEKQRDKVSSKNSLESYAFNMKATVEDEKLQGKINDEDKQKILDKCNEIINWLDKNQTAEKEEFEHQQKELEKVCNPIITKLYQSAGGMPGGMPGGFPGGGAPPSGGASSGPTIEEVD

Sequence of HSPA5 (P11021 419-632): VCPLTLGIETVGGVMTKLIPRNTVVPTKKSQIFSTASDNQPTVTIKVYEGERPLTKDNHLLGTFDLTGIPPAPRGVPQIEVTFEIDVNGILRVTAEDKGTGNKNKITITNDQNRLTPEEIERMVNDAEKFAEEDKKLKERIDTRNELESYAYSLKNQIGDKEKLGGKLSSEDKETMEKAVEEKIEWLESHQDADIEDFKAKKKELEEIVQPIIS
T7 sequence (P11021 418-635): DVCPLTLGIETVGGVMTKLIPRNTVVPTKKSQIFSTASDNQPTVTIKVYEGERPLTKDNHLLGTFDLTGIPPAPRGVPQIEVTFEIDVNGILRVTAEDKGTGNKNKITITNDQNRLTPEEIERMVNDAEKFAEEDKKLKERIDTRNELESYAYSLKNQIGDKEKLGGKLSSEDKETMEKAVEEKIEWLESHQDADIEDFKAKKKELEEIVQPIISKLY
T5 sequence (P17066 396-511 limits assumed): as the sequence (P0DMV8 394-509 limits assumed) above, with A19T, K22Q, S25A, I34T, L46F, N94S, K100R counted along it
T3 sequence (P02768 25-609): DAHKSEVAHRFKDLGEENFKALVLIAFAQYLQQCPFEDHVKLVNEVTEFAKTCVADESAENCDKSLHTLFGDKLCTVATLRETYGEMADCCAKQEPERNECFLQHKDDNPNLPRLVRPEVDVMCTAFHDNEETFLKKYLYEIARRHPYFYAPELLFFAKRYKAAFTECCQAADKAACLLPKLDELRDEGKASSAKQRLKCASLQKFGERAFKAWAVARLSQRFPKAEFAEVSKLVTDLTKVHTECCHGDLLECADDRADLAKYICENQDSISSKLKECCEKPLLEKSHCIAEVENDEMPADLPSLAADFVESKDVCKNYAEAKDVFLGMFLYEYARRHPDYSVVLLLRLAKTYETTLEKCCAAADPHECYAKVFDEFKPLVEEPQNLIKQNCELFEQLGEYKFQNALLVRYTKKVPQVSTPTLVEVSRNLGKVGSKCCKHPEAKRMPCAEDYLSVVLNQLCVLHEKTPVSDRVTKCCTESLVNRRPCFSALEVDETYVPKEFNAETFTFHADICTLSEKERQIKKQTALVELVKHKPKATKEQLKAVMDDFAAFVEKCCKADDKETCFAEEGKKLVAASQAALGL
T6 sequence (P54652 397-512 limits assumed): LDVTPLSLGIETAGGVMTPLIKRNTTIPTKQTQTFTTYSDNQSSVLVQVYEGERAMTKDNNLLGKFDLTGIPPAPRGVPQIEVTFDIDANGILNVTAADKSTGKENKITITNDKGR

`CC(C)[C@H](NC(=O)c1cc2ccccc2[nH]1)C(=O)Nc1nccs1` [Compound 8]: the “growth inhibition in NCI-60 panel” value with 60 cancer cell lines was “did not indicate significant decrease in growth rates”. The IC50 was more than 50 µM on HSPA1A [1]; 4.3 µM on HSPA9; 43.5 µM on HSPA8 [2]; more than 50 µM at HSPA6; 13.9 µM at HSPA2. The “ZIP synergy with p97 inhibitor CB5083” value in the series on cancer cell lines is given as “growth inhibition was observed when both compounds are present a concentration where neither showed activity independently”. For the same compound, the “Serum Binding” value at HSA is less than 10%. Moreover, the “growth inhibition with ER stress inducers MG132, thapsigargin, and CB5082” value in the series on U251 glioblastoma cells was “inhibits growth of these cells in a synergistic manner”.
Regarding `CC(C)[C@H](NC(=O)c1cccs1)C(=O)O` [Compound 17, (thiophene-2-carbonyl)-L-valine], the IC50 on HSPA5 was more than 50 µM.
For `CC(=O)c1ccc2[nH]c(C(=O)N[C@H](C(=O)Nc3nccs3)C(C)C)cc2c1` [Compound 24, (S)-5-acetyl-N-(3-methyl-1-oxo-1-(thiazol-2-ylamino)butan-2-yl)-1H-indole-2-carboxamide], the “solubility (comparison)” value in series [3] is “much more soluble than compound 8”. In addition, in series [4], the “binding to HSPA5 SBD by HSQC” value is “binds to HSPA5 in a manner that stabilizes its structure”. Further, the 50% inhibitory concentration (IC50) at HSPA5 stood at 0.43 ± 0.09 µM.
For “FITC-NR: Fluorescent peptide (FITC-NRLLLTG) used as FP probe”, the “binding of fluorescent peptide to HSP70 isoforms” value in series [5] is “only bound tightly to HSPA5 and HSPA9”.
For the compound NRLLLTG, the Kd on HSPA1A [6] and at HSPA8 [7] was 10 µM each time.
Turning to “P1: fluorescent peptide FAM-ALLLSAPRR that binds human HSP70 isoforms [Compound P1]”, in series [5], the “binding of fluorescent peptide to HSP70 isoforms” value is reported as “bound with high affinity to all isoforms except HSPA1L”.

Source of the values: US20230091297A1, “INHIBITORS OF HSP70 PROTEINS” (ARIZONA BOARD OF REGENTS ON BEHALF OF THE UNIVERSITY OF …, priority 2020, published 2023).
